Measured values published in ChEMBL document CHEMBL5226284, “Small Molecule Inhibitors Targeting Biosynthesis of Ceramide, the Central Hub of the Sphingolipid Network” (J Med Chem, 2021).

How the values were obtained:
[1] = target: T1, Sphingomyelin phosphodiesterase 2 (Mus musculus, UniProt O70572); experiment: Inhibition of mouse nSMase
T1 sequence (O70572 whole entry): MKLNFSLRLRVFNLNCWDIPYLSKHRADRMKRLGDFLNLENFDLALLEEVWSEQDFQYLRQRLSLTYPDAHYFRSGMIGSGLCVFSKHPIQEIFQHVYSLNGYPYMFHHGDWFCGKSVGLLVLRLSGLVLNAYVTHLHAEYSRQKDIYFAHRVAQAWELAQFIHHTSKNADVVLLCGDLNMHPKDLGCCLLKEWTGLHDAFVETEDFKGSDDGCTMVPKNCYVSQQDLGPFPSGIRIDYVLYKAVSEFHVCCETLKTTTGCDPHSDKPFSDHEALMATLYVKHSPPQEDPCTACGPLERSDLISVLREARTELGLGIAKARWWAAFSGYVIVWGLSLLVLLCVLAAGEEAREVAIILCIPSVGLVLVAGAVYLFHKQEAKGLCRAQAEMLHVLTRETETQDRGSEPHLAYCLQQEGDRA

[2] = target: Sphingomyelin phosphodiesterase 3 (Homo sapiens) (UniProt Q9NY59); experiment: Inhibition of nSMase2 (unknown origin) at 50 uM relative to control
Sphingomyelin phosphodiesterase 3 (Homo sapiens), sequence (Q9NY59 whole entry): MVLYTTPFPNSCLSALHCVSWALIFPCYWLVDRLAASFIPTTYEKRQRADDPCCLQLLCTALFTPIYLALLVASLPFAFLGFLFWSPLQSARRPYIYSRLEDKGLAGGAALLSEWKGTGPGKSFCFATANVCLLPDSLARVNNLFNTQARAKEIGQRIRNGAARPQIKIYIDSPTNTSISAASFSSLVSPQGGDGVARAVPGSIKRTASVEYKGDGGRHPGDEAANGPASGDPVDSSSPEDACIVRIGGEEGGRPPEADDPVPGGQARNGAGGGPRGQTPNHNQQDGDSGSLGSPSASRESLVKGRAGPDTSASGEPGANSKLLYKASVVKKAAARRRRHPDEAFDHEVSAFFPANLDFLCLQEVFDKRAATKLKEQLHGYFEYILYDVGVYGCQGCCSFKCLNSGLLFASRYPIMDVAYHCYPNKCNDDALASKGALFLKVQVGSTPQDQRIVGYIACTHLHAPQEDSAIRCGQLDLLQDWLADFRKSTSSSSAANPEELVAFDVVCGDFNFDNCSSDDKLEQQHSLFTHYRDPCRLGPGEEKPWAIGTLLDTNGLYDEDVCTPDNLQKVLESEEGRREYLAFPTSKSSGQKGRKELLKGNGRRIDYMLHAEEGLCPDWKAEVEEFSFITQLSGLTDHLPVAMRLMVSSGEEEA

[3] = target: T2, Sphingomyelin phosphodiesterase 2 (Rattus norvegicus, UniProt Q9ET64); experiment: Inhibition of rat brain microsomes nSMase; design: species or system Microsome
T2 sequence (Q9ET64 whole entry): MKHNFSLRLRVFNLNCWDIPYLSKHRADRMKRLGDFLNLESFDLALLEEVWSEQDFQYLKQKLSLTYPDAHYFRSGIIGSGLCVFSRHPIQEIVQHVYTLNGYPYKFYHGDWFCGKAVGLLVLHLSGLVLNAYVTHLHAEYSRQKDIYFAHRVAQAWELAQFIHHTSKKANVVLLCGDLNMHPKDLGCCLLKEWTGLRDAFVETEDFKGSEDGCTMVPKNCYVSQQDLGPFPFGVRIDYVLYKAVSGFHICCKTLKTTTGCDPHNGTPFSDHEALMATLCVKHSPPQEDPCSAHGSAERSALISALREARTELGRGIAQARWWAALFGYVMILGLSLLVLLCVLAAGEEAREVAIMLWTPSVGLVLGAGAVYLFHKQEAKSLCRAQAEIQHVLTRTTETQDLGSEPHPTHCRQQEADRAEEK

[4] = Inhibition of bovine brain microsomes nSMase assessed as inhibition constant; design: species or system Bos taurus, Microsome
[5] = Inhibition of rat brain aSMase using HMU-PC as substrate incubated for 3 hrs by fluorescence based analysis; type: tissue-based
[6] = Inhibition of rat brain aSMase using HMU-PC as substrate incubated for 3 hrs by fluorescence plate reader assay; type: tissue-based
[7] = test system: Neutral sphingomyelinase (Sus scrofa); experiment: Inhibition of pig liver plasma membranes nSMase at 100 uM measured after 15 mins at 100 uM relative to control; conditions: Plasma membrane
Sphingomyelinase C = target: T3, Sphingomyelinase C (Bacillus cereus, UniProt P11889); experiment: Inhibition of Bacillus cereus SMaseC
T3 sequence (P11889 whole entry): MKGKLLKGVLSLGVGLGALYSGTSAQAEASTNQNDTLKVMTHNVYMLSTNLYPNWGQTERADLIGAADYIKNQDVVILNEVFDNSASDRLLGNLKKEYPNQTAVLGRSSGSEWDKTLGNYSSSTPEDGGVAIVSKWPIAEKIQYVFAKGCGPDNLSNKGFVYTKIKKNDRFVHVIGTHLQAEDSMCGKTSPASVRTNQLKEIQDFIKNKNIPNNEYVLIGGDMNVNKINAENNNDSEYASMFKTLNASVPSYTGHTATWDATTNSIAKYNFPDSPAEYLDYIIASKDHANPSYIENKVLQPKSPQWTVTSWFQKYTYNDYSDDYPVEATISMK

[8] = Inhibition of bovine brain microsomes nSMase; design: species or system Bos taurus, Microsome
[9] = target: T4, Ceramide synthase 1 (Homo sapiens) (UniProt P27544); experiment: Inhibition of CerS1 (unknown origin) at 10 uM relative to control
T4 sequence (whole entry): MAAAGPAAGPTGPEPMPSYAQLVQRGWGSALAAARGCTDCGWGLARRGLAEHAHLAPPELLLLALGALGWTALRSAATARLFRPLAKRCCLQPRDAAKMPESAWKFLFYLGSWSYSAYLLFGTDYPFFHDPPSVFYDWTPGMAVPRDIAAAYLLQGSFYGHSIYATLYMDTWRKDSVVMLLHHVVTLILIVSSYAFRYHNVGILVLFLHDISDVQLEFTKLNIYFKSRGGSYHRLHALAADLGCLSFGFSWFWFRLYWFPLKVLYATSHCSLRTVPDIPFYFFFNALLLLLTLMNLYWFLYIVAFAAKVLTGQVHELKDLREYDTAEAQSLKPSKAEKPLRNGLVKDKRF

[10] = target: T5, Sphingomyelin phosphodiesterase 2 (Rattus norvegicus) (UniProt Q9ET64); experiment: Inhibition of rat brain microsomes nSMase at 100 uM relative to control; conditions: Microsome
T5 sequence (whole entry): T2 sequence (Q9ET64 whole entry)

[11] = target: T5, Sphingomyelin phosphodiesterase 2 (Rattus norvegicus); experiment: Inhibition of rat brain microsomes nSMase at 100 uM incubated for 60 mins relative to control; conditions: Microsome
[12] = Inhibition of CerS human HCT-116 cells microsomal fraction assessed as reduction in C18 dihydroceramide synthesis by LC-MS/MS analysis; type: microsomes, Microsome
[13] = Inhibition of CerS human HCT-116 cells microsomal fraction assessed as reduction in C24:1 dihydroceramide synthesis by LC-MS/MS analysis; type: microsomes, Microsome
[14] = target: Sphingomyelin phosphodiesterase 2 (Mus musculus) (UniProt O70572); experiment: Inhibition of nSMase in mouse Splenocyte at 1 uM relative to control; type: cell-based
[15] = target: T5, Sphingomyelin phosphodiesterase 2 (Rattus norvegicus); experiment: Inhibition of rat brain microsomes nSMase at 350 uM measured after 15 mins relative to control; conditions: Microsome
[16] = target: T6, Sphingolipid delta(4)-desaturase DES1 (Rattus norvegicus, UniProt Q5XIF5); experiment: Inhibition of rat liver microsome DES1 incubated for 20 min in presence of NADH by liquid scintillation counter method; type: microsomes
T6 sequence (Q5XIF5 whole entry): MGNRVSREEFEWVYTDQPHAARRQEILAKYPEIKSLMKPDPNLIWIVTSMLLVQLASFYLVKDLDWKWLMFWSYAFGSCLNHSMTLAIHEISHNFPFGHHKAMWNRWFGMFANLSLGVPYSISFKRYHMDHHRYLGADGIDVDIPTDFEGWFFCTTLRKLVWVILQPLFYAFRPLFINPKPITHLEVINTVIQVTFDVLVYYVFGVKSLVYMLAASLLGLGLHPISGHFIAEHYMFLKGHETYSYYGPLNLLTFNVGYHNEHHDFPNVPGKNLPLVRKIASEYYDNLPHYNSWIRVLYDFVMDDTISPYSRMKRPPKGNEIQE

Bos taurus = organism: Bos taurus; experiment: Inhibition of bovine brain microsomes nSMase measured after 60 mins relative to control; conditions: Microsome

CCOc1ccc(OCC)c(NC(=O)C2=C(C)NC(=S)NC2c2ccc(N(CC)CC)cc2)c1 (configuration not stated)
IC50 [1]: 0.86 µM

CN1c2ccc(OC(=O)Nc3ccccc3)nc2[C@]2(C)CCO[C@H]12
inhibition [2]: 60%

COC(C)(C)/C=C/c1cc(O)ccc1O
IC50 [3]: 16 µM

CCN(CC)c1ccc(C2NC(=S)NC(C)=C2C(=O)Nc2ccccc2OC)cc1 (configuration not stated)
IC50 [1]: 0.9 µM

CCCCCCCCCCCCNC(=S)N[C@H](CO)[C@H](O)c1ccc([N+](=O)[O-])cc1
Ki [4]: 1.7 µM

CCCCCCOS(=O)(=O)O[C@@H]1[C@H](O)[C@H](OP(=O)(O)O)[C@@H](O)[C@H](OP(=O)(O)O)[C@H]1O
IC50 [5]: 43 µM

CCCCCCCC(N)(P(=O)(O)O)P(=O)(O)O
IC50 [6]: 0.04 µM

COc1c(O)c(C)c(C/C=C(\C)CC/C=C(\C)CC/C=C(\C)CC/C=C(\C)CC/C=C(\C)CC/C=C(\C)CC/C=C(\C)CC/C=C(\C)CC/C=C(\C)CCC=C(C)C)c(O)c1OC
inhibition [7]: > 90%

CCCCCCCCC/C=N/NC(=N)N
IC50 [3]: 8.2 µM

CCCCCCC[C@@H](O)[C@H](CNP(=O)([O-])OCC[N+](C)(C)C)NC(=O)CCCCC
IC50 (Sphingomyelinase C): 53 µM

CC(C)(O)/C=C/C1=CC(=O)C=CC1=O
IC50 [3]: 4.2 µM

CCCCCCCCCCCCCCCC(=O)N[C@@H](CC(F)(F)P(=O)(O)O)[C@H](O)c1ccccc1
IC50 [8]: 181 µM

C[C@@](N)(CO)CCc1ccc(OCc2ccccc2)cc1
inhibition [9]: 76%

CC(C)C/C=C/C=C/C(=O)NC1=CC(=O)[C@H]2O[C@H]2C1=O
inhibition [10]: 90% | inhibition [11]: 98%

CCCCCCCCCCCC(O)(P(=O)(O)O)P(=O)(O)O
IC50 [6]: 0.07 µM

CCCCCCCOc1ccc(CCC(CO)(CO)N(C)C)cc1
IC50 [12]: 21.4 µM | IC50 [13]: 28.7 µM

N=C(N)N/N=C/c1ccc(Oc2cccc(OCc3ccccc3)c2)cc1
inhibition [14]: 80%

CC(C)(O)/C=C/c1cc(O)ccc1O
IC50 [3]: 17 µM

C/C=C/C=C/C(=O)N[C@@H](CO)[C@H]1CC(CCCCCC)C(=O)O1 (some centres not stated)
inhibition [15]: 90%

S=c1[nH]nc(Nc2ccc(Cl)cc2)n1-c1ccc(Cl)cc1
IC50 [1]: 2.4 µM

CCCCCCCCCCCC(=O)NC1=CC(=O)[C@H]2O[C@H]2C1=O
inhibition [10]: 10% | inhibition [11]: 88%

CC1=C(/C=C/C(C)=C/C=C/C(C)=C/C(=O)Nc2ccc(O)cc2)C(C)(C)CCC1=O
IC50 [16]: 1.68 µM

C/C=C/C=C/C(=O)N[C@@H](CO)[C@H]1C=C(CCCCCC)C(=O)O1
inhibition (Bos taurus): 90% | inhibition [15]: 50%
